# Reference: PubChem BioAssay (NCI)
#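 Abbreviation: GI50, concentration required for 50% inhibition of growth. TGI: concentration producing complete growth inhibition.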
# Experiments:
# Test in all cases: NCI-60 cell line screen, 384-well format
# CAKI-1 renal = tested on: CAKI-1 renal
# COLO 205 colon = tested on: COLO 205 colon
# OVCAR-3 ovarian = tested on: OVCAR-3 ovarian
# U251 glioblastoma = tested on: U251 glioblastoma
# RXF 393 renal = tested on: RXF 393 renal
# HS 578T breast = tested on: HS 578T breast
# SR leukemia = tested on: SR leukemia
# SNB-75 CNS = tested on: SNB-75 CNS
# NCI/ADR-RES ovarian = tested on: NCI/ADR-RES ovarian
# SF-268 CNS = tested on: SF-268 CNS
# NCI-H322M lung = tested on: NCI-H322M lung
# SW-620 colon = tested on: SW-620 colon
# HT29 colon = tested on: HT29 colon
compound,measurement,setting,value
O=C(c1ccccc1O)c1[nH]c(Cl)c(Cl)c1-n1c(C(=O)c2ccccc2O)cc(Cl)c1Cl,GI50,CAKI-1 renal,411 nM
same,TGI,CAKI-1 renal,2190 nM
same,GI50,COLO 205 colon,747 nM
same,TGI,COLO 205 colon,3800 nM
same,GI50,OVCAR-3 ovarian,353 nM
same,TGI,OVCAR-3 ovarian,1500 nM
same,GI50,U251 glioblastoma,331 nM
same,TGI,U251 glioblastoma,1130 nM
same,GI50,RXF 393 renal,600 nM
same,TGI,RXF 393 renal,2120 nM
same,GI50,HS 578T breast,157 nM
same,TGI,HS 578T breast,440 nM
same,GI50,SR leukemia,340 nM
same,TGI,SR leukemia,1100 nM
same,GI50,SNB-75 CNS,487 nM
same,TGI,SNB-75 CNS,2440 nM
same,GI50,NCI/ADR-RES ovarian,384 nM
same,TGI,NCI/ADR-RES ovarian,1270 nM
same,GI50,SF-268 CNS,116 nM
same,TGI,SF-268 CNS,871 nM
same,GI50,NCI-H322M lung,302 nM
same,TGI,NCI-H322M lung,1020 nM
same,GI50,SW-620 colon,367 nM
same,TGI,SW-620 colon,1540 nM
same,GI50,HT29 colon,518 nM
same,TGI,HT29 colon,4330 nM
